Test results as given in patent US20150344540A1, “NOVEL GLP-1 RECEPTOR AGONISTS WITH CHOLESTEROL EFFLUX ACTIVITY” (NOVO NORDISK A/S, priority 2012, published 2015).
Where two headings read alike, the source gives them in different places. Where a SMILES comes first, the peptide text is derived from it. [ ]: non-standard residue; d: D form. Aib = CC(C)(N)C(=O)O

Tests used:
[1] = test system: Mouse monocyte/macrophage cell line, RAW 264.7; assay: Cholesterol efflux assay (3H-cholesterol, macrophage cell line); format: cell-based; conditions: RAW 264.7, 4 hrs incubation, 0.1% human serum albumin, ABCA1-mediated efflux
[2] = molecular target: human GLP-1 receptor (Homo sapiens, UniProt P43220); assay: Functional GLP-1 receptor assay, in vitro potency (CRE luciferase; whole cells); format: cell-based; conditions: BHK cells expressing human GLP-1 receptor
human GLP-1 receptor, sequence (P43220 24-463): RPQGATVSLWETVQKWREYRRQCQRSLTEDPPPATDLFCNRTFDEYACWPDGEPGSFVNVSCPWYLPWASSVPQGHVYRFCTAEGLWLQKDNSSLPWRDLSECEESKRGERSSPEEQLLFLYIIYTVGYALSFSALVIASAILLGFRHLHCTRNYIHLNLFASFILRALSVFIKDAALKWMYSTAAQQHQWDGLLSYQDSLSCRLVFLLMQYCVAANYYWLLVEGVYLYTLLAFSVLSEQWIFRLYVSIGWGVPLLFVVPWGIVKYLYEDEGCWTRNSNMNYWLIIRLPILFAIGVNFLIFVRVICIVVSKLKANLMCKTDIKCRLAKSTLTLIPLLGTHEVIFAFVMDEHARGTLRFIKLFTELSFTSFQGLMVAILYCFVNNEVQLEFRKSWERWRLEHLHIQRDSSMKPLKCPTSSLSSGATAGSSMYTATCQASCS

[3] = Pharmacokinetics in mini-pigs after i.v. administration; conditions: female, Göttingen, minipig, plasma, iv, 5 nmol/kg
From the text: The aim of the study is to assess the pharmacokinetic properties of the compounds of the invention, in mini-pigs.
Göttingen mini-pigs female, 15-20 kg, purchased from Ellegaard Mini-pigs, Denmark, were housed in the Animal Unit, Novo Nordisk A/S and were kept and handled according to normal procedure in the Animal Unit. After minimum 2 weeks of acclimatization two permanent central venous catheters were implemented in vena cava caudalis in each animal. After surgery the animals were in their normal individual pens during the pharmacokinetic experiments.
Intravenous injections were given through the central short catheter, which was flushed with min 10 ml of sterile saline post administration. The test substance was dosed at 5 nmol/kg, N=3, in a volume of 0.05 ml/kg.
On day 1 the catheters are coupled to extension tubes, which will be removed at the end of day 1.
Samples were kept on wet ice until centrifugation (10 min, 4° C., 1942 g). Afterwards, plasma (min. 100 μl) was transferred immediately to Micronic tubes and kept at −20° C. until analysis. The plasma samples were analysed by an immunoaasay described below.
The plasma concentrations of the peptides with intact N-terminus were determined using a Luminescence Oxygen Chanelling Immuno-assay (LOCI). The donor beads were coated with streptavidin, while acceptor beads were conjugated with a monoclonal antibody recognizing a mid-/C-terminal epitope of the peptide. The other monoclonal antibody, specific for the N-terminus, was biotinylated. The three reactants were combined with the analyte and formed a two-sited immuno-complex. Illumination of the complex released singlet oxygen atoms from the donor beads, which were channeled into the acceptor beads and triggered chemi-luminescence which was measured in an Envision plate reader. The amount of light was proportional to the concentration of the compound.
Plasma concentration-time profiles was analysed by a non-compartmental pharmacokinetics analysis using Phoenix (Pharsight Inc., Mountain View, Calif., USA). Calculations were performed using individual concentration-time values from each animal.

[4] = 0% HSA, read-out: GLP1R CRE luc 0% HSA EC50 Mean Value
[5] = GLP1R CRE luc 1% HSA EC50 Mean Value, 1% HSA
[6] = T1/2 Mean Value, Göttingen mini-pigs, N=3

| Structure (SMILES) | 4 h Cholesterol Efflux Emax [1] [%] | EC50 [2, 4] [nM] | EC50 [2, 5] [nM] | C0 [3] [nM] | Vd [3] [L/kg] | clearance [3] [mL/h/kg] | half-life [3, 6] [h] | half-life ([3]; T1/2, mini-pigs) [h] |
| --- | --- | --- | --- | --- | --- | --- | --- | --- |
| CC[C@H](C)[C@H](NC(=O)[C@H](Cc1ccccc1)NC(=O)[C@H](CCC(=O)O)NC(=O)[C@H](CCCCN)NC(=O)[C@@H](NC(=O)[C@H](C)NC(=O)[C@H](CCC(=O)O)NC(=O)CNC(=O)[C@H](CCC(=O)O)NC(=O)[C@H](CC(C)C)NC(=O)[C@H](Cc1ccc(O)cc1)NC(=O)[C@H](CO)NC(=O)[C@H](CO)NC(=O)[C@@H](NC(=O)[C@H](CC(=O)O)NC(=O)[C@H](CO)NC(=O)[C@@H](NC(=O)[C@H](Cc1ccccc1)NC(=O)[C@@H](NC(=O)CNC(=O)[C@H](CCC(=O)O)NC(=O)C(C)(C)NC(=O)[C@@H](N)Cc1c[nH]cn1)[C@@H](C)O)[C@@H](C)O)C(C)C)C(C)C)C(=O)N[C@@H](C)C(=O)N[C@@H](Cc1c[nH]c2ccccc12)C(=O)N[C@@H](CC(C)C)C(=O)N[C@H](C(=O)N[C@@H](CCC(=O)O)C(=O)N[C@@H](CCCCN)C(=O)NC(C)(C)C(=O)NCC(=O)N[C@@H](CCC(=O)O)C(=O)N[C@@H](Cc1ccccc1)C(=O)N[C@@H](CC(C)C)C(N)=O)C(C)C [Compound 32] (H-H[Aib]EGTFTSDVSSYLEGEAVKEFIAWLVEK[Aib]GEFL-NH2) | 85 | 0.039 | 0.013 | 108 | 0.0769 | 1.04 | 51.3 | – |
| CC[C@H](C)[C@H](NC(=O)[C@H](Cc1ccccc1)NC(=O)[C@H](CCC(=O)O)NC(=O)[C@H](CCCCN)NC(=O)[C@@H](NC(=O)[C@H](CCCCN)NC(=O)[C@H](CCC(=O)O)NC(=O)CNC(=O)[C@H](CCC(=O)O)NC(=O)[C@H](CC(C)C)NC(=O)[C@H](Cc1ccc(O)cc1)NC(=O)[C@H](CO)NC(=O)[C@H](CO)NC(=O)[C@@H](NC(=O)[C@H](CC(=O)O)NC(=O)[C@H](CO)NC(=O)[C@@H](NC(=O)[C@H](Cc1ccccc1)NC(=O)[C@@H](NC(=O)CNC(=O)[C@H](CCC(=O)O)NC(=O)C(C)(C)NC(=O)[C@@H](N)Cc1c[nH]cn1)[C@@H](C)O)[C@@H](C)O)C(C)C)C(C)C)C(=O)N[C@@H](C)C(=O)N[C@@H](Cc1c[nH]c2ccccc12)C(=O)N[C@@H](CC(C)C)C(=O)N[C@H](C(=O)N[C@@H](CCC(=O)O)C(=O)NCC(=O)NC(C)(C)C(=O)N[C@@H](CCCCN)C(=O)N[C@@H](CCC(=O)O)C(=O)N[C@@H](Cc1ccccc1)C(=O)N[C@@H](CC(C)C)C(N)=O)C(C)C [Compound 64, [Aib8,Glu23,Lys24,Val25,Glu34,Aib36,Lys37]-GLP-1-(7-37)-peptidyl-Glu-Phe-Leu amide] (H-H[Aib]EGTFTSDVSSYLEGEKVKEFIAWLVEG[Aib]KEFL-NH2) | 100 | – | 0.111 | 86.9 | 0.0879 | 2.41 | 25.2 | – |
| CC[C@H](C)[C@H](NC(=O)[C@H](Cc1ccccc1)NC(=O)[C@H](CCC(=O)O)NC(=O)[C@H](CCCCN)NC(=O)[C@@H](NC(=O)[C@H](C)NC(=O)[C@H](CCC(=O)O)NC(=O)CNC(=O)[C@H](CCC(=O)O)NC(=O)[C@H](CC(C)C)NC(=O)[C@H](Cc1ccc(O)cc1)NC(=O)[C@H](CO)NC(=O)[C@H](CO)NC(=O)[C@@H](NC(=O)[C@H](CC(=O)O)NC(=O)[C@H](CO)NC(=O)[C@@H](NC(=O)[C@H](Cc1ccccc1)NC(=O)[C@@H](NC(=O)CNC(=O)[C@H](CCC(=O)O)NC(=O)C(C)(C)NC(=O)[C@@H](N)Cc1c[nH]cn1)[C@@H](C)O)[C@@H](C)O)C(C)C)C(C)C)C(=O)N[C@@H](C)C(=O)N[C@@H](Cc1c[nH]c2ccccc12)C(=O)N[C@@H](CC(C)C)C(=O)N[C@H](C(=O)N[C@@H](CCC(=O)O)C(=O)N[C@@H](CCCCN)C(=O)NC(C)(C)C(=O)N[C@@H](CCCCN)C(N)=O)C(C)C [Compound 11, [Aib8,Glu23,Val25,Glu34,Lys35,Aib36,Lys37]-GLP-1-(7-37)-peptide amide] (H-H[Aib]EGTFTSDVSSYLEGEAVKEFIAWLVEK[Aib]K-NH2) | 135 | 0.015 | 0.004 | 115 | 0.0613 | 54.9 | 0.8 | – |
| CC[C@H](C)[C@H](NC(=O)[C@H](Cc1ccccc1)NC(=O)[C@H](CCC(=O)O)NC(=O)[C@H](CCCCN)NC(=O)[C@H](C)NC(=O)[C@H](C)NC(=O)[C@H](CCC(N)=O)NC(=O)CNC(=O)[C@H](CCC(=O)O)NC(=O)[C@H](CC(C)C)NC(=O)[C@H](Cc1ccc(O)cc1)NC(=O)[C@H](CO)NC(=O)[C@H](CO)NC(=O)[C@@H](NC(=O)[C@H](CC(=O)O)NC(=O)[C@H](CO)NC(=O)[C@@H](NC(=O)[C@H](Cc1ccccc1)NC(=O)[C@@H](NC(=O)CNC(=O)[C@H](CCC(=O)O)NC(=O)C(C)(C)NC(=O)[C@@H](N)Cc1c[nH]cn1)[C@@H](C)O)[C@@H](C)O)C(C)C)C(=O)N[C@@H](C)C(=O)N[C@@H](Cc1c[nH]c2ccccc12)C(=O)N[C@@H](CC(C)C)C(=O)N[C@H](C(=O)N[C@@H](CCC(=O)O)C(=O)N[C@@H](CCCCN)C(=O)NC(C)(C)C(=O)N[C@@H](CCCCN)C(=O)N[C@@H](CCC(=O)O)C(=O)N[C@@H](Cc1ccccc1)C(=O)N[C@@H](CC(C)C)C(N)=O)C(C)C [Compound 45, [Aib8,Glu34,Lys35,Aib36,Lys37]-GLP-1-(7-37)-peptidyl-Glu-Phe-Leu amide] | 97 | 0.108 | 0.042 | 147 | 0.154 | 2.39 | 44.9 | – |
| CC[C@H](C)[C@H](NC(=O)[C@H](Cc1ccccc1)NC(=O)[C@H](CCC(=O)O)NC(=O)[C@H](CCCCN)NC(=O)[C@@H](NC(=O)[C@H](C)NC(=O)[C@H](CCC(=O)O)NC(=O)CNC(=O)[C@H](CCC(=O)O)NC(=O)[C@H](CC(C)C)NC(=O)[C@H](Cc1ccc(O)cc1)NC(=O)[C@H](CO)NC(=O)[C@H](CO)NC(=O)[C@@H](NC(=O)[C@H](CC(=O)O)NC(=O)[C@H](CO)NC(=O)[C@@H](NC(=O)[C@H](Cc1ccccc1)NC(=O)[C@@H](NC(=O)CNC(=O)[C@H](CCC(=O)O)NC(=O)C(C)(C)NC(=O)[C@@H](N)Cc1c[nH]cn1)[C@@H](C)O)[C@@H](C)O)C(C)C)C(C)C)C(=O)N[C@@H](C)C(=O)N[C@@H](Cc1c[nH]c2ccccc12)C(=O)N[C@@H](CC(C)C)C(=O)N[C@H](C(=O)N[C@@H](CCC(=O)O)C(=O)N[C@@H](CCCCN)C(=O)N[C@H](C(=O)N[C@@H](CCCCN)C(=O)N[C@@H](CCC(=O)O)C(=O)N[C@@H](CCCCN)C(=O)N[C@@H](CC(C)C)C(N)=O)C(C)C)C(C)C [Compound 118, [Aib8,Glu23,Val25,Glu34,Lys35,Val36,Lys37]-GLP-1-(7-37)-peptidyl-Glu-Lys-Leu amide] (H-H[Aib]EGTFTSDVSSYLEGEAVKEFIAWLVEKVKEKL-NH2) | 136 | 0.059 | 0.029 | 62.9 | 0.0809 | 4.99 | 11.2 | – |
| CC[C@H](C)[C@H](NC(=O)[C@H](Cc1ccccc1)NC(=O)[C@H](CCC(=O)O)NC(=O)[C@H](CCCCN)NC(=O)[C@H](C)NC(=O)[C@H](C)NC(=O)[C@H](CCC(=O)O)NC(=O)CNC(=O)[C@H](CCC(=O)O)NC(=O)[C@H](CC(C)C)NC(=O)[C@H](Cc1ccc(O)cc1)NC(=O)[C@H](CO)NC(=O)[C@H](CO)NC(=O)[C@@H](NC(=O)[C@H](CC(=O)O)NC(=O)[C@H](CO)NC(=O)[C@@H](NC(=O)[C@H](Cc1ccccc1)NC(=O)[C@@H](NC(=O)CNC(=O)[C@H](CCC(=O)O)NC(=O)C(C)(C)NC(=O)[C@@H](N)Cc1c[nH]cn1)[C@@H](C)O)[C@@H](C)O)C(C)C)C(=O)N[C@@H](C)C(=O)N[C@@H](Cc1c[nH]c2ccccc12)C(=O)N[C@@H](CC(C)C)C(=O)N[C@H](C(=O)N[C@@H](CCC(=O)O)C(=O)N[C@@H](CCCCN)C(=O)NC(C)(C)C(=O)N[C@@H](CCCCN)C(=O)N[C@@H](CCC(=O)O)C(=O)N[C@@H](Cc1ccccc1)C(=O)N[C@@H](CC(C)C)C(N)=O)C(C)C [Compound 8, [Aib8,Glu23,Glu34,Lys35,Aib36,Lys37]-GLP-1-(7-37)-peptidyl-Glu-Phe-Leu amide] (H-H[Aib]EGTFTSDVSSYLEGEAAKEFIAWLVEK[Aib]KEFL-NH2) | 100 | 0.163 | – | 79.7 | 0.152 | 3.09 | 32.9 | 32.8 |
